Square brackets hold non-standard residues; d marks the D form. Peptide text beside a SMILES is read from it. * marks the point of attachment. GlcA(β-D,1-O-dodecyl) = CCCCCCCCCCCCO[C@@H]1O[C@H](C(=O)*)[C@@H](O)[C@H](O)[C@H]1O; αMeF = C[C@](N)(Cc1ccccc1)C(=O)O; Ac4c = NC1(C(=O)O)CCC1; Aib = CC(C)(N)C(=O)O
Tests used:
Glucagon R = target: T1, Glucagon R (Homo sapiens, UniProt P47871); assay: Cerep cellular assay, stimulation of cAMP levels, glucagon (human, cloned into CHO cells); assay type: cell-based; conditions: human receptor in CHO cells (Cerep)
T1 construct: host or cells: CHO cells
T1 sequence (P47871 26-477): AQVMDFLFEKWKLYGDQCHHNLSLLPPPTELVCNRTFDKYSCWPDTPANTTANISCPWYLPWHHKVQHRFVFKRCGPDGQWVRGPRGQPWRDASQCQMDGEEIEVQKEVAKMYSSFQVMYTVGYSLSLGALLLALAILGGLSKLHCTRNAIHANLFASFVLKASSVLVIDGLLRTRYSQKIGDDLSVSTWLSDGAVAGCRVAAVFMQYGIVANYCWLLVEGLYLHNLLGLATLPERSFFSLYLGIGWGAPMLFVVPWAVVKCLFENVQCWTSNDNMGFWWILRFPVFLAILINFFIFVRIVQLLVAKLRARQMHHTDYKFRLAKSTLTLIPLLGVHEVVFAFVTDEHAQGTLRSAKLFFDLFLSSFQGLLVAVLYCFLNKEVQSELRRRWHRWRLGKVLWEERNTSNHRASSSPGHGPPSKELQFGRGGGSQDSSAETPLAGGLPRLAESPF
Description: (§1) Compounds were weighed precisely in an amount of about 1 mg and assayed in standard cellular assays (Cerep SA). The readout was the amount of cAMP generated in the cells treated with the test compounds, in either agonist or antagonist mode. […] The assays are described in Chicchi et al., J. Biol. Chem., 272:7765-7769 (1997) and Runge et al., Br. J. Pharmacol., 138:787-794 (2003).

[1] = incubation in human plasma at 30° C, in 4 hours
GLP-1 R = target: T2, GLP-1 R (Mus musculus, UniProt O35659); assay: Cerep cellular assay, stimulation of cAMP levels, GLP-1 (murine cell line); assay type: cell-based; parameters: key: §means superagonist; n.c. means EC50 not calculable; conditions: n.c. = EC50 not calculable
T2 construct: GLP-1 (murine cell line) cellular assays
T2 sequence (O35659 22-463): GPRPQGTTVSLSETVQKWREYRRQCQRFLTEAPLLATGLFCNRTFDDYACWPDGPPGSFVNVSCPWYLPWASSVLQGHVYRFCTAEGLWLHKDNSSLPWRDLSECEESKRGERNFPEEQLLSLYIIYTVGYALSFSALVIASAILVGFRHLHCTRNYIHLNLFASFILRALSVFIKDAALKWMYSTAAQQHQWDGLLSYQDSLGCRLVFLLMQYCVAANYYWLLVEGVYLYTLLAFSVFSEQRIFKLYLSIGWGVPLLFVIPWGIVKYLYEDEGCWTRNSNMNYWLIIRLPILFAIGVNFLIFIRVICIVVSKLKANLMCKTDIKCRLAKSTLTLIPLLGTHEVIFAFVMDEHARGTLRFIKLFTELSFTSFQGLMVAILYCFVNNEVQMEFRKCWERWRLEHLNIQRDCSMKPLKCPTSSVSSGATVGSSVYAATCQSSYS
Description: as §1

EC50 GLP-1 R (nM) (GLP-1 R)	Structure (SMILES)	further results
–	CCCCCCCCCCCCO[C@@H]1O[C@H](C(=O)NCCCC[C@H](NC(=O)C(C)(C)NC(=O)[C@H](CC(=O)O)NC(=O)[C@H](CC(C)C)NC(=O)[C@H](Cc2ccc(O)cc2)NC(=O)[C@H](CCCCN)NC(=O)[C@H](CO)NC(=O)[C@H](Cc2ccc(O)cc2)NC(=O)[C@H](CC(=O)O)NC(=O)[C@H](CO)NC(=O)[C@@H](NC(=O)[C@](C)(Cc2ccccc2)NC(=O)[C@@H](NC(=O)CNC(=O)[C@H](CCC(N)=O)NC(=O)C(C)(C)NC(=O)[C@@H](N)Cc2c[nH]cn2)[C@@H](C)O)[C@@H](C)O)C(N)=O)[C@@H](O)[C@H](O)[C@H]1O [EU-A391] (H-H[Aib]QGT[αMeF]TSDYSKYLD[Aib]K(GlcA(β-D,1-O-dodecyl))-NH2; N-terminus assumed)	GCGR cellular response (Glucagon R): did not change
–	CC[C@H](C)[C@H](NC(=O)[C@H](Cc1ccccc1)NC(=O)[C@H](CCC(=O)O)NC(=O)[C@H](CCCCN)NC(=O)[C@H](C)NC(=O)[C@H](C)NC(=O)[C@H](CCC(N)=O)NC(=O)CNC(=O)[C@H](CCC(=O)O)NC(=O)[C@H](CC(C)C)NC(=O)[C@H](Cc1ccc(O)cc1)NC(=O)[C@H](CO)NC(=O)[C@H](CO)NC(=O)[C@@H](NC(=O)[C@H](CC(=O)O)NC(=O)[C@H](CO)NC(=O)[C@@H](NC(=O)[C@H](Cc1ccccc1)NC(=O)[C@@H](NC(=O)CNC(=O)[C@H](CCC(=O)O)NC(=O)[C@H](C)NC(=O)[C@@H](N)Cc1c[nH]cn1)[C@@H](C)O)[C@@H](C)O)C(C)C)C(=O)N[C@@H](C)C(=O)N[C@@H](Cc1c[nH]c2ccccc12)C(=O)N[C@@H](CC(C)C)C(=O)N[C@H](C(=O)N[C@@H](CCCCN)C(=O)NCC(=O)N[C@@H](CCCNC(=N)N)C(N)=O)C(C)C [GLP-1(7-36)]	cleavage of compound in human plasma (compound signal versus time) [1]: essentially complete cleavage
n.c.	CCCCCCCCCCCCO[C@@H]1O[C@H](C(=O)NCCCC[C@H](NC(=O)[C@H](CO)NC(=O)[C@H](CC(=O)O)NC(=O)[C@H](CC(C)C)NC(=O)[C@H](Cc2ccc(O)cc2)NC(=O)[C@H](CCCCN)NC(=O)[C@H](CO)NC(=O)[C@H](Cc2ccc(O)cc2)NC(=O)[C@H](CC(=O)O)NC(=O)[C@H](CO)NC(=O)[C@@H](NC(=O)[C@H](Cc2ccccc2)NC(=O)[C@@H](NC(=O)CNC(=O)[C@H](CCC(N)=O)NC(=O)C(C)(C)NC(=O)[C@@H](N)Cc2c[nH]cn2)[C@@H](C)O)[C@@H](C)O)C(=O)NC(C)(C)C(N)=O)[C@@H](O)[C@H](O)[C@H]1O [EU-A527]	–
n.c.	CCCCCCCCCCCCO[C@@H]1O[C@H](C(=O)NCCCC[C@H](NC(=O)[C@H](CC(=O)O)NC(=O)[C@H](CC(C)C)NC(=O)[C@H](Cc2ccc(O)cc2)NC(=O)[C@H](CCCCN)NC(=O)[C@H](CO)NC(=O)[C@H](Cc2ccc(O)cc2)NC(=O)[C@H](CC(=O)O)NC(=O)[C@H](CO)NC(=O)[C@@H](NC(=O)[C@H](Cc2ccccc2)NC(=O)[C@@H](NC(=O)CNC(=O)[C@H](CCC(N)=O)NC(=O)C(C)(C)NC(=O)[C@@H](N)Cc2c[nH]cn2)[C@@H](C)O)[C@@H](C)O)C(=O)NC2(C(N)=O)CCC2)[C@@H](O)[C@H](O)[C@H]1O [EU-A522] (H-H[Aib]QGTFTSDYSKYLDK(GlcA(β-D,1-O-dodecyl))[Ac4c]-NH2; N-terminus assumed)	–

Source: patent US11541028B2, “Peptide pharmaceuticals for treatment of NASH and other disorders” (Mederis Diabetes LLC, priority 2018, dated 2023)
